This note sets out measurements from patent publication US20100003217A1, “Compounds and Pharmaceutical Compositions for the Treatment of Viral Infections” (priority 2008, published 2010).

Several values for one entry are separate records, joined by “and”; a condition that tells them apart may be missing. Identical values can stand only once.

The test system of series [1] is primary hepatocytes (human, monkey, rat). The series is described as follows: Primary hepatocytes, statements pooled over human, monkey and rat. Type of series: in vitro ADME. The procedure: Primary hepatocytes: Freshly isolated cells from animal and human liver were obtained in suspension on ice. Cells were pelleted by centrifugation at 70-75×g (rat) or 95-90×g (monkey and human) and resuspended at 0.8 million cells per mL of platting medium (William's E supplemented with 5% FBS, 0.5% penicillin-streptomycin, 1% L-glutamine, 4 μg/mL insulin and 1 μM dexamethasone). Multi-well collagen I-coated plates (rat tail collagen type I; 12- or 6-well) were then seeded by addition of 1 mL (12-well; 0.8 million cells/well) or 2 mL (6-well; 1.6 million cells/well) of cell suspension. […]
Cellular extracts were prepared by centrifugation at 16,000 RCF using an Eppendorf microcentrifuge (Eppendorf, Model 5415D) for 10 min to remove cellular debris. An aliquot of 5-10 μL of the supernatant was added to 5 mL of EcoLite™ (MP, Irvine, Calif.) liquid scintillation cocktail and radioactivity measured by liquid scintillation counting (LSC) using a Beckman Coulter LS6500 multipurpose liquid scintillation counter (Beckman Instruments, Fullerton, Calif.). […] Prior to HPLC analysis (described below), radioactivity of the concentrated extracts was measured by LSC using 5 μL aliquots. Extraction recovery was then determined by comparing total radioactivity in extracts before and after drying. […] Samples with poor recovery (<85%) were re-analyzed when possible. […]

In another series the target is CYP1A2 (Homo sapiens, UniProt P05177). Kind of series: Incubation with human recombinant CYP450 supersomes, 1A2. Type of series: in vitro ADME. As to conditions: CYP450 1A2 supersomes, 60 min, 10 μM, average of two experiments. The procedure: (§1) Supersomes—Incubations were conducted in a final volume of 0.1 mL reaction buffer (50-100 mM potassium phosphate, pH 7.4 or 100 mM Tris-HCL, pH 7.4) according to protocol provided with each CYP450 supersome. Each reaction contained […] of CYP450 supersome, 1.3 mM NADP^+, 3.3 mM glucose-6-phosphate, 0.4 U/mL glucose-6-phosphate dehydrogenase, 3.3 mM MgCl2 and 10 μM Compound 1. Following incubation for 60 min at 37° C., 100 μL of stop solution (acetonitrile:methanol; 1:1) was added and samples centrifuged for 10 min at 10,000×g. The supernatant was then dried and reconstituted in 10 mM potassium phosphate, pH 5, further transferred to an HPLC glass vial and analyzed by HPLC-UV (described above).
Chain of CYP1A2 (P05177 whole entry): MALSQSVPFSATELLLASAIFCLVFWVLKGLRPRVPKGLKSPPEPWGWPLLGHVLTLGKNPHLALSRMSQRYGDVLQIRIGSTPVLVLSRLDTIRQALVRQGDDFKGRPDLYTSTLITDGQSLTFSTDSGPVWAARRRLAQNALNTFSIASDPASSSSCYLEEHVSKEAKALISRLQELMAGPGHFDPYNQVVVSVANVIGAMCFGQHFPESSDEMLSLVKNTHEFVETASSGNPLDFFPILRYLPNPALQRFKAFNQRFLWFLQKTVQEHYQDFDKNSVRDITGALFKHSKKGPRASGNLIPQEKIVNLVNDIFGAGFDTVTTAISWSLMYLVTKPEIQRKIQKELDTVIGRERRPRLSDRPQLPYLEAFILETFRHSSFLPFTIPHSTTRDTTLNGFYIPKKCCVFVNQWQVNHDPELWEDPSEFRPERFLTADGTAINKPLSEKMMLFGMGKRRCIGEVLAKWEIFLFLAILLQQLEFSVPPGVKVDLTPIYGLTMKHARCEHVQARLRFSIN

Series [2] in a line: Metabolite profile in rat feces. Type of series: in vivo, male Sprague-Dawley rats. The conditions noted are these: for Percent of Dose, Feces 0-24 h: after [14C]Compound 1; for % AD / % HPLC (percent of HPLC peak area in the sample extract) / fecal component, % of the administered dose (% AD): 24 h collection; for % of the total fecal excretion / fecal component, % of the administered dose (% AD): rat feces. How it is done:
Pooled samples were prepared for the 24 h time interval from Groups 1C and 2C by combining a fixed percentage of the total weight of each individual animal sample homogenate for each group. The aliquots were pooled in a 15-mL polypropylene centrifuge tube. To the pooled sample (approximately 3 g each), 4.5 mL of MeOH-water (70:30) was added. The sample was vortexed for one minute, sonicated for 10 minutes, and then centrifuged at 5700×g for 10 minutes. The supernatant was transferred to a tube and the total volume of the supernatant was measured. The extraction procedure was repeated two additional times. The radioactivity in each extract was determined by LSC of duplicate aliquots (20 μL each) for extraction recovery. A portion (10% of total volume) of each extract was pooled for analysis by LSC and HPLC. The combined extracts were diluted (1:4) with aqueous mobile phase and analyzed using HPLC method 1 to obtain the metabolic profile. For comparing the in vitro with the in vivo metabolism data, these same fecal samples were analyzed by HPLC method 2.
Percent of the administered dose (% AD) for parent drug and each metabolite at each collection period=(% of the total radioactivity in the sample attributed to the metabolite)*(total radioactivity expressed as % of the administered dose, recovered during the corresponding collection period).
The samples were analyzed by HPLC with radiochemical detection. The distribution of metabolites as % of the administered dose was derived from these analyses. Both pooled fecal extracts were also analyzed by HPLC method 2. Metabolites R^1, R^2, R^3, R^4, R^5, R^6, R^7 and R^8 were characterized based on retention time.

The next series concerns the target CYP2C19 (Homo sapiens, UniProt P33261). Kind of series: Incubation with human recombinant CYP450 supersomes, 2C19. The class given is in vitro ADME. As to conditions: CYP450 2C19 supersomes, 60 min, 10 μM, average of two experiments. The procedure: as §1
The mark [3] stands for this setting: group 1C (IV) pooled fecal extract.
Where [4] appears, read: group 2C (PO) pooled fecal extract.

Chain of CYP2C19 (P33261 whole entry): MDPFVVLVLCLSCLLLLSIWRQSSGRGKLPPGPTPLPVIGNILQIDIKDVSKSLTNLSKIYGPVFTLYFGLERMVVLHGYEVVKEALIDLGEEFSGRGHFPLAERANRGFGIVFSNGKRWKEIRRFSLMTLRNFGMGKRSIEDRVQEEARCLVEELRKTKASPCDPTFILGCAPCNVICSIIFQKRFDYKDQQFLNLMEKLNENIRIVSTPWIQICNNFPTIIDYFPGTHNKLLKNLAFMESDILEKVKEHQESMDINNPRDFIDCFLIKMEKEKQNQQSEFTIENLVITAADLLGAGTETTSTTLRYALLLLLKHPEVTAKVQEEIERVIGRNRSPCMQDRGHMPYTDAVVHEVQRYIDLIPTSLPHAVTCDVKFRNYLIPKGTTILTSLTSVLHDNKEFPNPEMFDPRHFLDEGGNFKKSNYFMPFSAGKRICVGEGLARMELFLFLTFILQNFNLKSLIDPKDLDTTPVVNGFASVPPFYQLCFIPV

Take `C[C@@]1(O)[C@H](O)[C@@H](COP(=O)(O)OP(=O)(O)OP(=O)(O)O)O[C@H]1n1cnc2c(=O)[nH]c(N)nc21` [Compound 7, [(2R)-2-methyl-β-D-ribofuranosyl]guanine 5′-triphosphate]: in series [1] (extracts of primary hepatocytes, all three species, 4-24 hours, [^14C]-Compound 1), the “% of the total intracellular radioactivity” value was 60-81%.
For `CC(C)(CO)C(=O)SCCOP(=O)(NCc1ccccc1)OC[C@H]1O[C@@H](n2cnc3c(=O)[nH]c(N)nc32)[C@](C)(O)[C@@H]1O` (mixture of isomers) [Compound 1, 3-hydroxy-2,2-dimethyl-thiopropionic acid S-(2-{[(2R,3R,4R,5R)-5-(2-amino-6-oxo-1,6-dihydro-purin-9-yl)-3,4-dihydroxy-4-methyl-tetrahydro-furan-2-ylmethoxy]-benzylamino-phosphoryloxy}-ethyl) ester], the “% Residual Compound 1” value on CYP1A2 was found to be 104%; at CYP2C19, 111%. In addition, the “Total excretion (% AD), feces” value in series [2] (IV (1C)) is given as 19.7 % AD; in series [2] (PO (2C)), 65.6 % AD. The “Percent of Dose, Feces 0-24 h” value in series [2] (IV) is recorded as 19.7% of Dose; in series [2] (Oral), 65.6% of Dose. Besides, the “% AD” value amounted to 19.7 % AD in series [2] (setting [3]) and 65.6 % AD in series [2] (setting [4]). For the same molecule, the figures for the “% HPLC (percent of HPLC peak area in the sample extract)” value in series [2] (setting [3]) and in series [2] (setting [4]) were 50.6% and 71.9%, respectively. The figures for the “% of the total fecal excretion” value in series [2] (IV dose 50 mg/kg) and in series [2] (PO dose 100 mg/kg) were 50.6% and 71.9%, respectively. Further, the “fecal component, % of the administered dose (% AD)” value is 19.7 % AD and 20 % AD in series [2] (IV dose 50 mg/kg, 50 mg/kg); 65.6 % AD and 66 % AD in series [2] (PO dose 100 mg/kg, 100 mg/kg).
Take `C[C@@]1(O)[C@H](O)[C@@H](CO)O[C@H]1n1cnc2c(=O)[nH]c(N)nc21` [2′-C-methyl guanosine, 9-(2-C-methyl-β-D-ribofuranosyl)guanine, reference compound]: the “Total excretion (% AD), feces” value was 16.0 % AD in series [2] (IV (1C)) and 25.6 % AD in series [2] (PO (2C)). In addition, the “Percent of Dose, Feces 0-24 h” value in series [2] (IV) is given as 16.0% of Dose; in series [2] (Oral), 25.6% of Dose. For the same molecule, the results for the “% AD” value in series [2] (setting [3]) and in series [2] (setting [4]) were 16.0 % AD and 25.6 % AD, respectively. The “% HPLC (percent of HPLC peak area in the sample extract)” value in series [2] (setting [3]) is on record as 41.0%; in series [2] (setting [4]), 28.1%. Moreover, the “% of the total fecal excretion” value is listed as 41.0% in series [2] (IV dose 50 mg/kg) and 28.1% in series [2] (PO dose 100 mg/kg). The “fecal component, % of the administered dose (% AD)” value is 16 % AD in series [2] (IV dose 50 mg/kg, 50 mg/kg); 25.6 % AD and 26 % AD in series [2] (PO dose 100 mg/kg, 100 mg/kg). Also, in series [1] (primary hepatocytes, 10 μM or 1 μM), the “metabolites in the incubation medium following incubation with [^14C]-2′-C-methyl guanosine” value was “No metabolites were observed”.
